Molecular target: T1, Oxytocin receptor (Homo sapiens, UniProt P30559)
T1 sequence (P30559 whole entry): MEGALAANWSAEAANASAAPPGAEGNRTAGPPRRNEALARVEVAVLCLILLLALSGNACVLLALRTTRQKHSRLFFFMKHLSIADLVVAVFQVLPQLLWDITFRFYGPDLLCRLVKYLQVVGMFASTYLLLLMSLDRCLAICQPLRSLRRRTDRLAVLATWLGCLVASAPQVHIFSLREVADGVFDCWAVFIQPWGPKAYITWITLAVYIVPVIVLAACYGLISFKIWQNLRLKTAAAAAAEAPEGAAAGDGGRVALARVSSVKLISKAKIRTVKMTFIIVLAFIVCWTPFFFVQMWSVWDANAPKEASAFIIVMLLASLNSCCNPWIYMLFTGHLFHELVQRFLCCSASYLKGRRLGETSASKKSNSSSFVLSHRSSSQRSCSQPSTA
Test: Agonist activity at human oxytocin receptor expressed CHO cells assessed as calcium flux by FLIPR method
Format: functional, cell-based

Structure (SMILES) | EC50
O=S(=O)(Nc1ccnn1-c1ccccn1)c1ccc(Cl)cc1F | 19 nM
O=S(=O)(Nc1ccnn1-c1ncc(C(F)(F)F)cn1)c1ccc(C(F)(F)F)cc1 | 1570 nM

— ChEMBL document CHEMBL3352674, “Pyrazolsulfonamide agonists of oxytocin receptor” (ACS Med Chem Lett, 2014)
